Measurements reported in patent US11299512B2 (priority 2016, dated 2022).
Where two headings read alike, the source gives them in different places.

Test system: THP1 luciferase reporter cells
Assay: cells
Assay type: cell-based
[1] = Homo sapiens, THP-1, 16 h, read-out: THP1-ISG-Luc with PFO, EC50
[2] = Homo sapiens, THP-1, 16 h, read-out: THP-ISG-Luc without PFO, EC50
[3] = 16 hours, read-out: THP1-ISG-Luc with PFO, EC50
[4] = 16 hours, read-out: THP-ISG-Luc without PFO, EC50

Compound	EC50 [1] [µM]	EC50 [2] [µM]	EC50 [3] [µM]	EC50 [4] [µM]
C#CCOc1nc(N)nc2c1ncn2[C@@H]1O[C@@H]2COP(=O)(O)OC3C(O)[C@H](n4cnc5c(N)ncnc54)O[C@@H]3COP(=O)(O)OC1C2O (stereo in doubt) [Example E4]	< 0.1	< 30		
Nc1nc2c(ccn2[C@@H]2O[C@@H]3COP(=O)(O)OC4C(O)[C@H](n5cnc6c(NCCO)ncnc65)O[C@@H]4COP(=O)(S)OC2C3O)c(=O)[nH]1 (stereo in doubt) [EB5]	0.1 to 1	> 100		
Nc1nc2c(ncn2[C@@H]2O[C@@H]3COP(=O)(O)OC4C(O)[C@H](n5cnc6c(N)ncnc65)O[C@@H]4COP(=O)(S)OC2C3O)c(=O)[nH]1 (single isomer, unassigned) [Example E9]			< 0.1	< 30
Nc1nc2c(ncn2[C@@H]2O[C@@H]3COP(=O)(S)OC4C(O)[C@H](n5cnc6c(N)ncnc65)O[C@@H]4COP(=O)(S)OC2C3O)c(=O)[nH]1 (single isomer, unassigned) [Example E13]			0.1 to 1	> 100
Nc1nc2c(ccn2[C@@H]2O[C@@H]3COP(=O)(O)OC4C(O)[C@@H](COP(=O)(S)OC2C3O)O[C@H]4n2cnc3c(N)ncnc32)c(=O)[nH]1 (single isomer, unassigned) [EC15]			0.1 to 1	< 30
COC1C2OP(=O)(O)OC[C@H]3O[C@@H](n4cnc5c(N)ncnc54)C(O)C3OP(=O)(O)OC[C@H]1O[C@H]2n1cnc2c(=O)[nH]c(N)nc21 (stereo in doubt) [Example E3]	< 0.1	< 30		
BP1(=O)OC[C@H]2O[C@@H](n3cnc4c(=O)[nH]c(N)nc43)[C@@H](OP(B)(=O)OC[C@H]3O[C@@H](n4cnc5c(N)ncnc54)[C@@H](O)C3O1)C2O (stereo in doubt) [EA11]	< 0.1	< 30		
Nc1nc2c(ncn2[C@@H]2O[C@@H]3COP(=O)(O)OC4C[C@H](c5cccc6ccccc56)O[C@@H]4COP(=O)(O)OC2C3OCC(F)(F)F)c(=O)[nH]1 (stereo in doubt) [EC19]	> 1	> 100		
Nc1ncnc2c1ccn2[C@@H]1O[C@@H]2COP(=O)(S)OC3C(O)[C@@H](COP(=O)(O)OC2C1O)O[C@H]3n1ccc2c(N)ncnc21 (some centres unmarked) [EC6]	> 1	> 100		
Nc1nc2c(ncn2[C@@H]2O[C@@H]3COP(=O)(O)OC4C(O)[C@H](n5cnc6c(N)ncnc65)O[C@@H]4COP(=O)(O)OC2C3CCO)c(=O)[nH]1 (stereo in doubt) [EC12]	< 0.1	< 30		
Nc1nc2c(ncn2[C@@H]2O[C@@H]3COP(=O)(O)OC4C(O)[C@H](n5cnc6c(N)ncnc65)O[C@@H]4COP(=O)(O)OC2C3O)c(=O)[nH]1 (stereo in doubt) [Example E1]	< 0.1	< 30		
Nc1nc2c(ncn2[C@@H]2O[C@@H]3COP(=O)(O)OC4C(O)[C@H](n5cnc6c5ncn5ccnc65)O[C@@H]4COP(=O)(O)OC2C3OCC(F)(F)F)c(=O)[nH]1 (stereo in doubt) [EC26]	0.1 to 1	> 100		
Nc1nc2c(ccn2[C@@H]2O[C@@H]3COP(=O)(S)OC4C(O)[C@H](n5ccc6c(N)ncnc65)O[C@@H]4COP(=O)(S)OC2C3O)c(=O)[nH]1 (single isomer, unassigned) [Example E22]			0.1 to 1	< 30
BP1(=O)OC[C@H]2O[C@@H](n3cnc4c(N)ncnc43)C(O)[C@H]2OP(=O)(O)OC[C@H]2O[C@@H](n3cnc4c(=O)[nH]c(N)nc43)[C@@H](O1)C2O (single isomer, unassigned) [Example E25]	< 0.1	< 30		
Nc1nc2c(ncn2[C@@H]2O[C@@H]3COP(=O)(S)OC4C(O)[C@H](n5ccc6c(N)ncnc65)O[C@@H]4COP(=O)(S)OC2C3O)c(=O)[nH]1 (single isomer, unassigned) [Example E16]			< 0.1	< 30
Nc1nc2c(ccn2[C@@H]2O[C@@H]3COP(=O)(S)OC4[C@@H](COP(=O)(S)O[C@H]2C3O)O[C@@H](n2ccc3c(N)ncnc32)[C@H]4O)c(=O)[nH]1 (some centres unmarked) [Example E23]	< 0.1	< 30		
COC1C2OP(=O)(O)OC[C@H]3O[C@@H](n4cnc5c(=O)[nH]c(N)nc54)C(OP(=O)(O)OC[C@H]2O[C@H]1n1cnc2c(N)ncnc21)C3OCC(F)(F)F (stereo in doubt) [EC10]	> 1	> 100		
Nc1nc2c(ncn2[C@@H]2O[C@@H]3COP(=O)(S)OC4C(O)[C@H](n5ncc6c(N)ncnc65)O[C@@H]4COP(=O)(S)OC2C3O)c(=O)[nH]1 (single isomer, unassigned) [EA5]			> 1	> 100
Nc1nc2c(ncn2[C@@H]2O[C@@H]3COP(=O)(O)OC4C[C@H](n5ccc6ccccc65)O[C@@H]4COP(=O)(S)OC2C3O)c(=O)[nH]1 (single isomer, unassigned) [EC17]	> 1	> 100		
Nc1nc2c(ncn2[C@@H]2O[C@@H]3COP(=O)(S)OC4C(O)[C@H](n5ccc6c(N)ncnc65)O[C@@H]4COP(=O)(S)OC2C3O)c(=O)[nH]1 (single isomer, unassigned) [Example E17]			> 1	> 100

Compound	EC50 [1] [µM]	EC50 [2] [µM]	EC50 [3] [µM]	EC50 [4] [µM]
Nc1nc2c(ccn2[C@@H]2O[C@@H]3COP(=O)(S)OC4C(O)[C@@H](COP(=O)(O)OC3C2O)O[C@H]4n2ccc3c(N)ncnc32)c(=O)[nH]1 (single isomer, unassigned) [EC9]			> 1	> 100
Nc1nc2c(ccn2[C@@H]2O[C@@H]3COP(=O)(O)OC4C(O)[C@H](n5cnc6c(N)ncnc65)O[C@@H]4COP(=O)(S)OC2C3O)c(=O)[nH]1 (single isomer, unassigned) [EB4]	> 1	30 to 100		
BP1(=O)OC[C@H]2O[C@@H](n3cnc4c(N)ncnc43)C(O)C2OP(=O)(O)OC[C@H]2O[C@@H](n3cnc4c(=O)[nH]c(N)nc43)C(O1)C2O (single isomer, unassigned) [EA9]	< 0.1	< 30		
Nc1nc2c(ccn2[C@@H]2O[C@@H]3COP(=O)(O)OC4C(O)[C@H](n5ccc6c(N)ncnc65)O[C@@H]4COP(=O)(O)OC2C3O)c(=O)[nH]1 (stereo in doubt) [EA1]	0.1 to 1	> 100		
Nc1nc2c(ncn2[C@@H]2O[C@@H]3COP(=O)(O)OC4C[C@H](c5ccc6ccc7cccc8ccc5c6c78)O[C@@H]4COP(=O)(S)OC2C3O)c(=O)[nH]1 (single isomer, unassigned) [EC20]	> 1	> 100		
BP1(=O)OC[C@H]2O[C@@H](n3cnc4c(=O)[nH]c(N)nc43)C(OP(=O)(O)OC[C@H]3O[C@@H](n4cnc5c(N)ncnc54)C(O)C3O1)C2O (stereo in doubt) [EA10]	< 0.1	< 30		
Nc1nc2c(ncn2[C@@H]2O[C@@H]3COP(=O)(S)OC4C(O)[C@H](n5cnc6c(N)ncnc65)O[C@@H]4COP(=O)(S)OC2C3O)c(=O)[nH]1 (single isomer, unassigned) [Example E14]			0.1 to 1	> 100
Nc1nc2c(ccn2[C@@H]2O[C@@H]3COP(=O)(S)O[C@@H]4C(O)[C@H](n5cnc6c(N)ncnc65)O[C@@H]4COP(=O)(S)O[C@H]2C3O)c(=O)[nH]1 (single isomer, unassigned) [EA7]	0.1 to 1	< 30		
Nc1nc2c(ccn2[C@@H]2O[C@@H]3COP(=O)(S)OC4C(O)[C@H](n5cnc6c(N)ncnc65)O[C@@H]4COP(=O)(S)OC2C3O)c(=O)[nH]1 (single isomer, unassigned) [EA6]			> 1	> 100
Nc1nc2c(ncn2[C@@H]2O[C@@H]3COP(=O)(S)OC4C(O)[C@H](n5cnc6c(N)ncnc65)O[C@@H]4COP(=O)(S)OC2C3O)c(=O)[nH]1 (single isomer, unassigned) [Example E12]	< 0.1			< 30
Nc1nc2c(ncn2[C@@H]2O[C@@H]3COP(=O)(O)OC4C(O)[C@H](n5cnc6c(N)ncnc65)O[C@@H]4COP(=O)(S)OC2C3O)c(=O)[nH]1 (single isomer, unassigned) [Example E8]	0.1 to 1			> 100
Nc1nc2c(ccn2[C@@H]2O[C@@H]3COP(=O)(O)OC4C(O)[C@@H](COP(=O)(S)OC2C3O)O[C@H]4n2cnc3c(N)ncnc32)c(=O)[nH]1 (single isomer, unassigned) [EC14]			> 1	> 100
Nc1nc2c(ncn2[C@@H]2O[C@@H]3COP(=O)(O)OC4C(O)[C@H](n5cnc6c(N)ncnc65)O[C@@H]4CNc4c(c(=O)c4=O)NC2C3O)c(=O)[nH]1 (stereo in doubt) [EC22]	> 1	> 100		
Nc1nc2c(ccn2[C@@H]2O[C@@H]3COP(=O)(S)OC4C(O)[C@@H](COP(=O)(O)OC3C2O)O[C@H]4n2ccc3c(N)ncnc32)c(=O)[nH]1 (single isomer, unassigned) [EC8]	> 1	> 100		
C#CCOC1[C@H]2OP(=O)(O)OC[C@H]3O[C@@H](n4cnc5c(=O)[nH]c(N)nc54)[C@@H](OP(=O)(O)OC[C@H]2O[C@H]1n1cnc2c(N)ncnc21)C3O (some centres unmarked) [EA3]	> 1	> 100		
Nc1nc2c(ccn2[C@@H]2O[C@@H]3COP(=O)(S)OC4C(O)[C@@H](COP(=O)(O)OC3C2O)O[C@H]4n2ccc3c(=O)[nH]c(N)nc32)c(=O)[nH]1 (single isomer, unassigned) [EC4]			> 1	> 100
EC23			> 1	> 100
CCCC1C2OP(=O)(O)OC[C@H]3O[C@@H](n4cnc5c(N)ncnc54)C(O)C3OP(=O)(O)OC[C@H]1O[C@H]2n1cnc2c(=O)[nH]c(N)nc21 (stereo in doubt) [EC24]	< 0.1	< 30		
Nc1nc2c(ccn2[C@@H]2O[C@@H]3COP(=O)(O)OC4C(O)[C@H](n5ccc6c(N)ncnc65)O[C@@H]4COP(=O)(S)OC2C3O)c(=O)[nH]1 (single isomer, unassigned) [EB2]			< 0.1	< 30
Nc1nc2c(ccn2[C@@H]2O[C@@H]3COP(=O)(O)OC4C(O)[C@H](n5ccc6c(N)ncnc65)O[C@@H]4COP(=O)(S)OC2C3O)c(=O)[nH]1 (single isomer, unassigned) [EB1]		30 to 100	> 1	
